The values below come from patent publication US7005449B2, “Tolterodine salts” (Pharmacia & Upjohn Company, priority 2002, dated 2006).

Some results are limits rather than exact numbers.

A short description of data set [1]: Rotating disk dissolution of tolterodine salts. Type of data set: physicochemical. Conditions: 25° C.; for Rotating disk dissolution rate (RDDR): pH 6, 0.05 M phosphate buffer. As for the experimental part: Data was collected on the salts. Rotating disk dissolution data was collected at pH 6 in a 0.05 M phosphate buffer at 25° C. on a fiber optic apparatus.

The nature of data set [2]: Rotating disk dissolution of tolterodine salts. Type of data set: physicochemical. Conditions: extrapolated from carbon chain length trend.
The conditions of data set [3]: traditional tablet administration; cited from earlier work.
Data set [4] can be described thus: Equilibrium solubility of tolterodine salts (shaking excess salt 24 hours, RP-HPLC).
Experimental: The resultant solution is centrifuged at 5000 rpm for 30 min in a temperature-controlled centrifuge. The supernatant was diluted and analysed for tolterodine by reversed phase high performance liquid chromatography (RP-HPLC).

`CCCCCCCCCC(=O)O.Cc1ccc(O)c([C@H](CCN(C(C)C)C(C)C)c2ccccc2)c1` [caprate]: the “Rotating disk dissolution rate (RDDR)” value in data set [1] was determined as 0.75 μg cm^−2s^−1.
Regarding `CCCCCCCCCCCCCC(=O)O.Cc1ccc(O)c(C(CCN(C(C)C)C(C)C)c2ccccc2)c1` (centres unmarked) [myristic (14 C)], the predicted dissolution rate result in data set [2] was “very low”.
`CCCCCCCCCCCCCCCC(=O)O.Cc1ccc(O)c(C(CCN(C(C)C)C(C)C)c2ccccc2)c1` (centres unmarked) [palmitic (16 C)]: the predicted dissolution rate result in data set [2] is “very low”.
For `Cc1ccc(O)c(C(CCN(C(C)C)C(C)C)c2ccccc2)c1.O=C(O)c1cc2ccccc2c(Cc2c(O)c(C(=O)O)cc3ccccc23)c1O` [pamoate, tolterodine pamoate], the “Rotating disk dissolution rate (RDDR)” value was <0.3 μg cm^−2s^−1 in data set [1] and “less than the detection limit of the instrument” in data set [1] (listed as pamoate salt).
As to `Cc1ccc(O)c([C@H](CCN(C(C)C)C(C)C)c2ccccc2)c1.O=C(O)C(O)C(O)C(=O)O` [tartrate, tolterodine tartrate, reference compound], the “rotating disk dissolution rate” value in data set [1] (pH 6 media) came out at 14 μg cm^−2sec^−1. In data set [1], the “Rotating disk dissolution rate (RDDR)” value is 14.0 μg cm^−2s^−1.
Take `Cc1ccc(O)c([C@H](CCN(C(C)C)C(C)C)c2ccccc2)c1` [tolterodine, 2-[(1R)-3-(diisopropylamino)-1-phenylpropyl]-4-methylphenol]: the “time of peak plasma concentration” value in data set [3] was 1 to 2 h.
On to benzoate, for which the “Rotating disk dissolution rate (RDDR)” value in data set [1] is 2.1 μg cm^−2s^−1.
On the same count and under the same terms, next, fumarate: 2.6 μg cm^−2s^−1.
Still for that read-out and setting: then laurate, with 0.38 μg cm^−2s^−1.
With maleate, the “Rotating disk dissolution rate (RDDR)” value in data set [1] came out at 4.1 μg cm^−2s^−1. The “Equilibrium solubility in buffer” value in data set [4] (0.1 M phosphate buffer pH 7.4, 24 hours, room temperature) was determined as 4700 µg/mL. For the same compound, the “final pH in buffer” value in data set [4] (final pH of the buffer solubility sample) was determined as 6.9. Further, the “final pH in water” value in data set [4] (final pH of the water solubility sample) stood at 5.0. In addition, in data set [4] (water, 24 hours, room temperature), the “Equilibrium solubility in water” value is 1500 µg/mL.
In the case of tolterodine heptanoate, the “Rotating disk dissolution rate (RDDR)” value in data set [1] was determined as 2.7 μg cm^−2s^−1.
